Source: patent US20240307220A1, “Combination Therapy to Treat Temperature Sensitive Mutant Tumors” (H. LEE MOFFITT CANCER CENTER AND RESEARCH INSTITUTE INC., priority 2021, published 2024)

Assays:
Type in all cases: cell-based, human
[1] = system: H1299 stably expressing ts p53 mutants; experiment: Apoptosis (PARP cleavage) and MTS cell viability in H1299 stably expressing ts p53 mutants treated with CPT
Description: FIGS. 3A to 3D show induction of growth arrest and cell death by p53 ts mutants. […] DNA replication rate was measured by scintillation counting and normalized to cell number. […] PARP cleavage was determined by Western blot. FIGS. 3C and 3D show H1299 stably expressing ts p53 mutants treated with CPT at indicated concentrations for 48 hrs at 37° C. or 32° C. Cell viability was determined by MTS assay. The results are average of 3 experiments (mean±SD).
Western blot. Cells were lysed in lysis buffer (50 mM Tris-HCl pH 8.0, 5 mM EDTA, 150 mM NaCl, 0.5% Nonidet P-40, 1×protease inhibitor cocktail) and centrifuged for 10 minutes at 14,000×g, and the insoluble debris was discarded. Cell lysate (10-50 µg of protein) was fractionated by SDS-PAGE and transferred to Immobilion P filters (Millipore). […] MDM2 was detected using monoclonal antibody 3G9 produced in house. Other markers were detected using commercial antibodies: Actin (Sigma A5441), p53-DO1 (BD Pharmingen #554293), p21 (BD Pharmingen #556430), PUMA (CellSignaling #12450), PARP (BD Pharmingen #556362), p53 pSer15 (CellSignaling #9284), p53 acetyl-Lys382 (CellSignaling #2525).
Cell proliferation and viability assays. DNA replication was analyzed using ^3H-thymidine incorporation assay. […] The incorporated ^3H-thymidine was analyzed by liquid scintillation counting. […]

[2] = system: H1299 cells stably expressing p53 ts mutants; experiment: Western blot of p53 target gene induction in H1299 stably expressing ts p53 mutants, with CPT
Description: (§1) FIGS. 1B and 1C show representative p53 ts mutants stably expressed in H1299 cells tested for induction of target gene expression after 20 hrs at 32° C. CPT (0.5 μM for 20 hrs) was added when cells were shifted to 32° C. […] P53 binding to PUMA promoter was determined by ChIP. The results are average of 3 experiments (mean±SD).
FIGS. 10A to 10F show induction of endogenous targets by ts p53 mutants. P53 ts mutants were stably expressed in H1299 cells using lentivirus vector. Cells were tested for induction of target gene expression after 20 hrs at 32° C. by Western blot. CPT (0.5 μM for 20 hrs) was added when cells were shifted to 32° C. A138V was used as a benchmark to facilitate comparison between gels.
Western blot. Cells were lysed in lysis buffer (50 mM Tris-HCl pH 8.0, 5 mM EDTA, 150 mM NaCl, 0.5% Nonidet P-40, 1×protease inhibitor cocktail) and centrifuged for 10 minutes at 14,000×g, and the insoluble debris was discarded. Cell lysate (10-50 µg of protein) was fractionated by SDS-PAGE and transferred to Immobilion P filters (Millipore). The filter was blocked for 1 hr with phosphate buffered saline (PBS) containing 5% non-fat dry milk and 0.1% Tween 20, incubated with primary and secondary antibodies, and the filter was developed using SuperSignal reagent (Thermo Scientific). MDM2 was detected using monoclonal antibody 3G9 produced in house. Other markers were detected using commercial antibodies: Actin (Sigma A5441), p53-DO1 (BD Pharmingen #554293), p21 (BD Pharmingen #556430), PUMA (CellSignaling #12450), PARP (BD Pharmingen #556362), p53 pSer15 (CellSignaling #9284), p53 acetyl-Lys382 (CellSignaling #2525).
Validation of ts p53 mutants from cancer. We selected 17 most frequently observed ts mutants for validation in p53-null H1299 cells. These ts mutants together represent 9.6% (2,358/24,679) of tumors with p53 missense mutations (Table 3), or 64% (2,358/3,658) of tumors with ts p53 mutations. The ability of these mutants to activate the p21 and PUMA promoters at 32° C. were confirmed in reporter assays after transient expression (FIG. 2A, FIG. 8A-8C). […]

[3] = system: P53 binding to PUMA promoter; experiment: ChIP of p53 binding to PUMA promoter in H1299 stably expressing p53 mutants; conditions: 0.5 μM CPT at 32° C. for 20 hrs
Description: as §1
Chromatin immunoprecipitation (ChIP). ChIP assay was performed using standard procedure. Crosslinked p53-DNA complexes were immunoprecipitated with DO-1 antibody. Samples were subjected to SYBR Green real-time PCR analysis using forward and reverse primers for the p53 binding sites in the p21 promoter ([…] (SEQ ID NO:7) and […] (SEQ ID NO:8)), and PUMA promoter ([…] (SEQ ID NO:9) and […] (SEQ ID NO:10)).

CC[C@@]1(O)C(=O)OCc2c1cc1n(c2=O)Cc2cc3ccccc3nc2-1 [CPT, Camptothecin]
apoptosis indicated by PARP cleavage ([1]; 0.5 μM CPT for 48 hrs at 32° C., 1% FBS): cooperated with CPT to induce apoptosis
cell viability (MTS assay) ([1]; CPT for 48 hrs at 32° C.): loss of cell viability
ts p53 Ser15 phosphorylation and K382 acetylation ([2]; CPT 0.5 μM for 20 hrs at 32° C., Western blot): stimulated
PUMA expression in the absence of p53 ([2]; H1299 without p53, CPT 0.5 μM for 20 hrs): modestly stimulated PUMA expression
induction of endogenous PUMA ([2]; stably transfected H1299 with ts mutants, CPT 0.5 μM for 20 hrs at 32° C., Western blot): could be stimulated
PUMA promoter binding by the ts mutants (ChIP) [3]: further stimulated the binding
